According to patent US11428689B2, “Methods and uses for remotely triggered protease activity measurements” (Massachusetts Institute of Technology, priority 2016, dated 2022):
Entries after “also recorded” stand apart in the source; their conditions may differ. One block for each compound: values may come before it. Where no end group is shown, it is not given here. [ ]: non-standard residue; d: D form. FAM = fluorescein

Legend:
LS174T cells [1] = assay: Secreted protease activity assay, conditioned media; assay type: cell-based, human; conditions: conditioned media from LS174T cells
Description: LS174T and CCD-18Co (ATCC CRL-1459) cells were cultured in Eagle's Minimal Essential Medium (ATCC) supplemented with 10% FBS (Gibco) and 1% penicillin-streptomycin (CellGro). Cells were passaged when confluence reached 80%. To isolate secreted proteases, after cells were plated, cells were washed and replaced in serum-free media. Conditioned media was collected 24 h later and exposed to C1-NPs to measure fluorescence dequenching.

plasmin = plasmin (Homo sapiens, UniProt P00747); assay: Proteolysis of alternate DMNPE-veiled substrate; assay type: biochemical
Chain of plasmin (P00747 581-810 limits assumed, species assumed): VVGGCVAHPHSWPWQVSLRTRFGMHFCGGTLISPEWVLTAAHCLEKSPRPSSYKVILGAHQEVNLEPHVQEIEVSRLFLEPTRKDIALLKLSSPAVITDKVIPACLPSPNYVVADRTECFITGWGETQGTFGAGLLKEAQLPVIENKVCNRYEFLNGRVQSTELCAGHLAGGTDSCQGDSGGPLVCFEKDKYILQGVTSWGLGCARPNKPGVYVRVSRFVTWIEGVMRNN
Chain of plasmin (P00747 97-580 partner limits assumed, species assumed): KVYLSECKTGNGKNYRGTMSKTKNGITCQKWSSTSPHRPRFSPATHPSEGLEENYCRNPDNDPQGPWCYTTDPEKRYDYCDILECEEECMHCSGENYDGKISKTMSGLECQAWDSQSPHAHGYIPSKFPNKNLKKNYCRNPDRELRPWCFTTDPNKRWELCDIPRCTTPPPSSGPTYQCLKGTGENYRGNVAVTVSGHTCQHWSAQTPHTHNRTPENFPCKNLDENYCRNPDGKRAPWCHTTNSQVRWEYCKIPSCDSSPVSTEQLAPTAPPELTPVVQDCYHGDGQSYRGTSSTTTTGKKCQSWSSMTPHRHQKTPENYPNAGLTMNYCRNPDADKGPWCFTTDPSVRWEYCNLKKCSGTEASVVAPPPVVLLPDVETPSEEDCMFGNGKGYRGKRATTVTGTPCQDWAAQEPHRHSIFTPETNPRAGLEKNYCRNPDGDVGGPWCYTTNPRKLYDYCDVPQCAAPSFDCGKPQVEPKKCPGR
Description: To validate that the approach is generalizable to alternative substrates, the STREAMs principle was applied to a second peptide sequence. Additionally, the reporter for this additional sequence was designed to be orthogonal to the original sequence (containing a near IR dye as opposed to fluorescein). […] The ability to produce STREAMs with orthogonal reporters for multiple substrate targets, in some embodiments, enables multiplexing. Additionally, coupling this approach with alternate modes for multiplexing analyte detection, in some embodiments, enables simultaneous monitoring of several substrates.
Fluorescein-conjugated peptides (MMP sensitive, C1: FAM-sk-PLGLEEA-GC; SEQ ID NO: 3) were synthesized. D-amino acid controls were also synthesized, where the substrate sequence was all D-stereoisomers. Peptides for in vivo studies that contain a ligand-encoded reporter for urinary clearance and subsequent ELISA detection were synthesized (V1: Biotin-PEG(5 kDa)-(KFAM)-PLGLEEA-GC; SEQ ID NO: 4). The PEG 5 kDa reporter is efficiently cleared by the renal system into the urine and can be quantified by ELISA for the conjugated ligands. The alternate substrate to show STREAMs extensibility was synthesized at a different location (sequence: eGvndneeGffsarKsRLVGEGC; SEQ ID NO: 5). VT750 (PerkinElmer) was conjugated to the free lysine prior to coupling to DMNPE. […]

MMP13 = molecular target: T1, MMP13 (Homo sapiens, UniProt P45452); assay: In vitro recombinant protease assay (fluorescence dequenching of NP-bound substrate); assay type: biochemical
T1 construct: purchased Enzo Life Sciences
Description: (§1) C1-NP complexes sensitive to MMP cleavage were mixed with 1% (wt/vol) BSA (Sigma) and incubated with recombinant proteases (MMPs and ADAMs: Enzo Life Sciences; Clotting proteases: Haematologic Technologies) in a final volume of 100 μL in enzyme-specific buffers (MMP buffer: 50 mM Tris, 150 mM NaCl, 5 mM CaCl2, 1 μM ZnCl2, pH 7.5; Clotting proteases: PBS) in a 384-well plate for time-lapse fluorimetry to measure dequenching from homoquenched peptides at 37° C. (SpectroMax Gemini EM Microplate Reader). For the metalloproteinase, enzymes were diluted 1:10 in enzyme specific buffer, and for clotting proteases, enzymes were diluted 1:100. Cleavage heatmap was generated using GENE-E (Broad Institute). Michaelis-Menten constants were determined by assessing initial cleavage velocities at different substrate concentrations. The MMP inhibitor Marimatstat (Tocris) was added to the mixture at 100 μM final concentration. To identify the cleavage position by MMP9, C1-NPs were incubated with MMP9 overnight, and the N-terminal cleavage fragment was isolated and analyzed by MALDI. The sequence corresponding to the dominant peak was identified, and the final amino acid was in that sequence represents the P1 position (toward the N-terminal end from scissile bond). For protease resistance assays, various DMNPE: peptide ratios were reacted overnight and purified prior to being added to proteases.
(§2) Light activation of peptides for biochemical studies was performed using a CL-1000 UV Cross-linker (UVP, 8 mW/cm^2). Power density was measured by an OAI 306 UV power meter at 365 nm. Typical exposure time for these studies was 10-30 min. For activation in cell and animal studies, Lumen Dynamics UV system with 365 nm fiber light guide was used (OmniCure 1000, 200 mW/cm^2). For in vivo activation at the tumor site, mice were anesthetized, and the light was guided through an optical cable and placed approximately 3 cm from the flank tumor. Each flank tumor was exposed for 30 s.

recombinant thrombin = molecular target: T2, recombinant thrombin (Homo sapiens, UniProt P00734); assay: In vitro recombinant protease assay (fluorescence release); assay type: biochemical; conditions: veiled vs unmodified
T2 construct: purchased Haematologic Technologies
Description: as §1

LS174T cells [2] = assay: 3D collagen cancer tissue model, peptide fluorescence in supernatant; assay type: cell-based, human
Description: Next, the activation of the nanosensors in a 3D ECM environment was probed. Forty LS174T cells were embedded in collagen I together with veiled or unmodified nanosensors (FIG. 4A). The constructs were monitored for protease activity by collecting the supernatant and measuring liberated peptide fragments under different conditions: L-amino acid peptide substrates were compared to D-amino acid counterparts to measure nonspecific background, and the role of DMPNE veiling was measured.
In order to correlate regions of light-activation with protease activity measurements, light-activated rhodamine dye was included to visualize regions exposed to light (FIG. 12A). To explore the ability to monitor protease activity with spatial and temporal control, only the left half of the gels was illuminated.
LS174T cells were encapsulated in 2.5 mg/mL collagen hydrogels (rat tail collagen type I, Corning). Imaging was done on Nikon Eclipse Ti Inverted Microscopes and Zeiss Stereoscope Discovery v20. When protease activity was measured, surrounding media was serum-free.

MMP9 [3] = molecular target: T3, MMP9 (Homo sapiens, UniProt P14780); assay: Agarose gel assay; assay type: biochemical; conditions: light exposure 1 min, 200 mW/cm^2
T3 sequence (P14780 94-707, species assumed): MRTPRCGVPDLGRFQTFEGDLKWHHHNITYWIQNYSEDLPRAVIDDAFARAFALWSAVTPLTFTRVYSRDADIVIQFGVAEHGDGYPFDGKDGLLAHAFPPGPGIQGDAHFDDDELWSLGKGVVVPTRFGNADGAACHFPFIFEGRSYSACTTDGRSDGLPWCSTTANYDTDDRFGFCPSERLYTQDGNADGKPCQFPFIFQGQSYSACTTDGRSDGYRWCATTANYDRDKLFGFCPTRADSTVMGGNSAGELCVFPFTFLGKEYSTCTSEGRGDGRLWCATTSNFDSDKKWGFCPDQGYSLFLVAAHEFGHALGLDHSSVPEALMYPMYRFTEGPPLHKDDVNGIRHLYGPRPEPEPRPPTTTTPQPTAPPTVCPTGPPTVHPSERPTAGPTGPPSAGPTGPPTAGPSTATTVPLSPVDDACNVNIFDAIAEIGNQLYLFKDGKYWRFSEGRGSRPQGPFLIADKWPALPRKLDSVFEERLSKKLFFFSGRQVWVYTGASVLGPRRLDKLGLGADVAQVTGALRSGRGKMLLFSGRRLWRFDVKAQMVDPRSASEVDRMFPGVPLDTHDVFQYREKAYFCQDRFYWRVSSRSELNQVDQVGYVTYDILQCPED
Description: Agarose (type I-A, Sigma) was dissolved in MMP9 specific buffer (1% w/v) and heated. As the gel mixture was cooling, gel solution was transferred into a 96-well plate and mixed with STREAMs and recombinant MMP9. After gelation, the gels were activated (as above), and fluorescence dequenching through cleavage was monitored using time-lapse fluorimetry.

MMP9 [4] = molecular target: T3, MMP9; assay: In vitro recombinant protease assay (fluorescence dequenching of NP-bound substrate); assay type: biochemical; design: purchased Enzo Life Sciences
Description: as §1, §2

MMP19 = molecular target: T4, MMP19 (Homo sapiens, UniProt Q99542); assay: In vitro recombinant protease assay with streptavidin depletion; assay type: biochemical; conditions: ~100 nM MMP, one hour
T4 construct: purchased Enzo Life Sciences
T4 sequence (Q99542 98-508): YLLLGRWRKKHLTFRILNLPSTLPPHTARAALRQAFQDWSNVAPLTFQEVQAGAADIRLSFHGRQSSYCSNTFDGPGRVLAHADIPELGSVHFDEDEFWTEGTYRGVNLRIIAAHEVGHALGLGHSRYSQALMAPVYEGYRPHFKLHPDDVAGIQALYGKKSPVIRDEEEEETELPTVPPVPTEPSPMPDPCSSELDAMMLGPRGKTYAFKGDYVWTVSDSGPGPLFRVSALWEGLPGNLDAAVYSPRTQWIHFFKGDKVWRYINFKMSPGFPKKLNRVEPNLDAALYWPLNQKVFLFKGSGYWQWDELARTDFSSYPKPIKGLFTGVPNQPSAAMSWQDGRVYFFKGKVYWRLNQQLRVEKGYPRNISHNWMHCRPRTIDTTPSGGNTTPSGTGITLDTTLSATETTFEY
Description: (§3) MMPs (˜100 nM working concentration, Enzo Life Sciences) were added to substrates in 384-well plates in activity buffer (50 mM Tris, 150 mM NaCl, 5 mM CaCl2, 1 μM ZnCl2) containing 1% BSA. After one hour, uncleaved peptide was extracted using Dynabeads Strepatividin C1 (Life Technologies) as per manufacturer protocols. An excess of Dynabeads was used.

MMP7 [5] = molecular target: T5, MMP7 (Homo sapiens, UniProt P09237); assay: as above; assay type: biochemical; conditions: ~100 nM MMP, one hour
T5 construct: purchased Enzo Life Sciences
T5 sequence (P09237 95-267): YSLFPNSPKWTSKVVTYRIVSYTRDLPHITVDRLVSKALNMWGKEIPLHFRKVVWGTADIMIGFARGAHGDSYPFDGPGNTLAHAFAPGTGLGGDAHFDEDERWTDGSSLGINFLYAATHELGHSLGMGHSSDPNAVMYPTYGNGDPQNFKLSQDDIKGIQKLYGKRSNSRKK
Description: as §3

LS174T = assay: Secreted protease activity assay with quenched substrates; assay type: cell-based, human; conditions: for cleavage by cell-secreted proteases: fluorescently quenched versions, LS174T conditioned supernatant
Description: Next, whether the MAPS(S1-S3) could distinguish MMP profiles of different tumor types was probed. […] Cleavage of the substrates was tested by cell-secreted proteases by employing fluorescently quenched versions and exposing them to conditioned supernatant.
LS174T and HCT-8 cells were cultured in Eagle's Minimal Essential Medium (ATCC) supplemented with 10% FBS (Gibco) and 1% penicillin-streptomycin (CellGro). Cells were passaged when confluence reached 80%. To isolate secreted proteases, after cells were plated, cells were washed and replaced in serum-free media. Media was collected and MMP2 was measured in supernatant using a Quantikine MMP-2 kit following manufacturer protocols (R&D Systems). Secretion was normalized to number of cells and days in culture. A similar approach was used when collecting supernatants for measuring proteolysis of S1-3.

LS174T flank tumor = conditions: LS174T tumor-bearing mice
Description: (§4) The in vivo activation protocol was applied to specifically activate the three sets of MAPS to profile tumor protease activity between LS174T and HCT8 tumors.

MMP2 = molecular target: T6, MMP2 (Homo sapiens, UniProt P08253); assay: In vitro recombinant protease assay with streptavidin depletion; assay type: biochemical; conditions: ~100 nM MMP, one hour
T6 construct: purchased Enzo Life Sciences
T6 sequence (P08253 110-660): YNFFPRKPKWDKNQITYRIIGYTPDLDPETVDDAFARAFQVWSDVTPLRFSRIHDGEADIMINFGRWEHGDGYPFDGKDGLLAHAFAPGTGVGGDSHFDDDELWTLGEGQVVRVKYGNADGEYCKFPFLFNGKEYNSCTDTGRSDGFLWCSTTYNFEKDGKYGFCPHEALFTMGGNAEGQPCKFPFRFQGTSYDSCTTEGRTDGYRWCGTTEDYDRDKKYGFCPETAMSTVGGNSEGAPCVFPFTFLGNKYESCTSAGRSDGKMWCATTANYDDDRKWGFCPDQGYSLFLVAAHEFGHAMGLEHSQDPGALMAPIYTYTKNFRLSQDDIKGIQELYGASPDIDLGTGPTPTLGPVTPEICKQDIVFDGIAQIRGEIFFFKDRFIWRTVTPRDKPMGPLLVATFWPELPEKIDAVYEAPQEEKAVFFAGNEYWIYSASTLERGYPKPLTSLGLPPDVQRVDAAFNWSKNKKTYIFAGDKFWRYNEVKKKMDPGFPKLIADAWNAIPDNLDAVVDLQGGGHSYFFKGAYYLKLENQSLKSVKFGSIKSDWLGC
Description: as §3

MMP9 [6] = molecular target: T3, MMP9; assay: as above; assay type: biochemical; design: purchased Enzo Life Sciences; conditions: ~100 nM MMP, one hour
Description: as §3

MMP7 [7] = molecular target: T5, MMP7; assay: In vitro recombinant protease assay (fluorescence dequenching of NP-bound substrate); assay type: biochemical; conditions: 100 μM final concentration
Description: as §1

[8] = healthy mice
Description: as §4

[9] = increasing periods of light exposure, 8 mW/cm^2

Compound: FAM-sk-plGleea-GC ({FAM}-[dS][dK][dP][dL]G[dL][dE][dE][dA]GC; also: nanoparticle conjugated) [control NPs conjugated to D-amino acid stereoisomers]
cleavage by cell-secreted proteases (LS174T cells [1]): not cleaved

proteolysis by plasmin after coupling of DMNPE (plasmin): reduced proteolysis
proteolysis by plasmin after UV exposure (plasmin; then UV): recovered
Compound: RLVGEGC [eGvndneeGffsarKsRLVGEGC]

proteolysis by MMP13 after conjugation with DMNPE (MMP13; veiled vs unmodified, no light): marked reduction in proteolysis
cleavage by thrombin (recombinant thrombin): reduced cleavage
proteolysis by MMP9 after conjugation with DMNPE (MMP9 [4]; veiled vs unmodified, no light): marked reduction in proteolysis
Compound: STREAMs: C1-NPs whose peptide is veiled with photolabile DMNPE groups; unveiled by 365 nm light ({FAM}-[dS][dK]PLGLE(DMNPE)E(DMNPE)AGC(iron oxide nanoparticle); not fully specified)
proteolysis by MMP13 after exposure to 365 nm light (MMP13; [9]): elevated proteolysis in a light exposure-dependent manner
liberated peptide fluorescence in supernatant (LS174T cells [2]; first day, no light): significantly less peptide fluorescence compared to unmodified L-amino acid sensors
peptide fluorescence in supernatant after light exposure (LS174T cells [2]; left half of gels illuminated, 24 h, 30 s at 200 mW/cm^2): higher levels of peptide fluorescence
proteolytic cleavage after light exposure in agarose gel (MMP9 [3]): dramatic increase in proteolytic cleavage
proteolysis by MMP9 after exposure to 365 nm light (MMP9 [4]; [9]): elevated proteolysis in a light exposure-dependent manner
stability of DMNPE conjugation (resistance to MMP9-mediated cleavage) (MMP9 [4]; two weeks post-DMNPE-coupling): equal levels of protection compared to freshly conjugated samples

Compound: Biotin-CGPVPLSLVMK(Cy7)eGvndneeGffsar-NH2 [S2]
relative proteolysis by MMP19 (MMP19): cleaved efficiently
relative proteolysis by MMP7 (MMP7 [5]): cleaved efficiently
cleavage by cell-secreted proteases (LS174T): minimal cleavage
urine signal of free peptide (LS174T flank tumor): similar

Compound: Biotin-CGPVGLIGK(Cy7)eGvndneeGffsar-NH2 [S1]
relative proteolysis by MMP2 (MMP2): responded primarily
cleavage by cell-secreted proteases (LS174T): cleaved most significantly
urine signal of free peptide (LS174T flank tumor): elevated
relative proteolysis by MMP9 (MMP9 [6]): responded primarily

Compound: CNC(=O)[C@@H](NC(=O)[C@H](CC(C)C)[C@H](O)C(=O)NO)C(C)(C)C [Marimastat]
effect of inhibitor on proteolysis of C1-NP by MMP7 (MMP7 [7]): inhibited; also recorded: abrogates cleavage
effect of inhibitor on proteolysis by LS174T secreted proteases (LS174T): abrogated

Compound: Biotin-CGPLGVRGKK(Cy7)eGvndneeGffsar-NH2 [S3]
relative proteolysis by MMP2 (MMP2): responded primarily
cleavage by cell-secreted proteases (LS174T): minimal cleavage
background cleavage of free peptide [8]: lowest background cleavage
urine signal of free peptide (LS174T flank tumor): similar
relative proteolysis by MMP9 (MMP9 [6]): responded primarily
